From the NIST ThermoML archive (doi:10.1016/j.fluid.2015.10.027)
± gives the expanded uncertainty stated by the source.

Conditions: 101.33 kPa, Liquid, Vibrating tube method

- mass density (300.83 K): 816.664 ± 0.24 kg/m3
- mass density (304.05 K): 813.975 ± 0.24 kg/m3
- mass density (306.72 K): 811.615 ± 0.24 kg/m3
- mass density (309.8 K): 809.031 ± 0.24 kg/m3
- mass density (313.97 K): 805.478 ± 0.24 kg/m3
SMILES: CC1CCCC(C)N1 (stereo not given) [2,6-dimethylpiperidine]
